Test [1] relates to serum uric acid. Kind of test: Phase 2 clinical trial (NCT03934099): serum uric acid concentration in gout patients. Type of test: in vivo, human. The following applies: for patients with serum uric acid concentration <4 mg/dL / patients with serum uric acid concentration <5 mg/dL / patients with serum uric acid concentration <6 mg/dL: febuxostat group 40 mg oral. Here is the method: A phase 2 clinical trial was conducted to analyze the dosage, TEAEs, and the like when the compound of Formula 1 (1-(3-cyano-1-isopropyl-indol-5-yl)pyrazol-4-carboxylic acid; compound of Example 1) is administered to a gout patient group.
• 1. Written informed consent (signed and dated) provided voluntarily prior to the start of the study. • 2. Male or female aged from 18 to 75 • 3. History or experience of hyperuricemia and gout in accordance with the criteria of the American College of Rheumatology. • 4. Self-reported history of 2 or more gout flare within 12 months prior to screening visit (Visit 1). • 5. Serum uric acid (sUA) levels at Visit 1 of 6.0 mg/dL or more in subjects who were receiving urate lower therapy (ULT) with allopurinol, febuxostat, probenecid, or lesinurad; and sUA levels at Visit 1 of 8.0 mg/dL or more and 12.0 mg/dL or less in subjects who had no history of receiving the ULT or were not receiving the ULT at visit 1. • 6. sUA levels of 8.0 mg/dL or more and 12.0 mg/dL or less at Visit 3. • 7. Body mass index of 42 kg/m^2 or less at screening visit (Visit 1). • 8. Estimated glomerular filtration rate (eGFR) of 60 mL/min/1.73 m^2 or more at screening visit (Visit 1). • 9. Subjects of childbearing potential with a negative pregnancy test result at screening visit (Visit 1). Subjects (female subjects of childbearing potential and male subjects with partners of childbearing potential) consented to use adequate methods of contraception to avoid pregnancy during the study period. • 10. Able to understand the study procedure and relevant risk, and willing to comply with the visit/protocol schedule.
• 1. Presence of secondary hyperuricemia caused by myeloproliferative disorder, organ transplantation, or the like. • 2. Experience of any active acute gout flare within 3 weeks prior to screening visit (Visit 1). • 3. Aspartate aminotransferase or alanine aminotransferase level exceeds 2 times upper limit of normal (ULN) at screening visit (Visit 1). • 4. Creatine kinase level exceeds 2.5 times ULN at screening visit (Visit 1). • 5. Presence of previous hypersensitivity to colchicine. • 6. Patients who have ever prescribed pegloticase within 3 months prior to screening visit (Visit 1). • 7. If a stable dose of drugs (losartan, fibrate, thiazide diuretics, loop diuretics, and acetylsalicylic acid) known to affect sUA levels has not been administered during the past 6 weeks prior to screening visit (Visit 1), acetylsalicylic acid is not allowed to use 325 mg/day or more. • 8. Patients who have ever received systemic corticosteroids for 10 or more consecutive days within 1 month prior to screening visit (Visit 1). • 9. Presence of need or potential availability of systemic immunosuppressive drugs or immunomodulatory therapies (e.g., azathioprine, 6-mercaptopurine, and cyclosporine) • 10. Patients who have received high or moderate doses of cytochrome P450 3A4 inhibitors or P-glycoprotein inhibitors within 14 days prior to screening visit (Visit 1). • 11. History of xanthinuria. • 12. History of rheumatoid arthritis. • 13. Presence of active peptic ulcer disease requiring treatment. • 14. Presence of unstable angina, New York Heart Association class III or IV heart failure, myocardial infarction, stroke, deep vein thrombosis, percutaneous coronary intervention (with or without stent), or coronary artery bypass graft within the past 12 months prior to screening visit (Visit 1); current administration of anticoagulants; or the presence of clinically significant electrocardiogram abnormalities in the investigator's opinion at screening visit (Visit 1). • 15. Presence of uncontrolled hypertension (systolic blood pressure>160 mmHg or diastolic blood pressure>95 mmHg) at screening visit (Visit 1). • 16. History of myositis/myopathy, rhabdomyolysis, Stevens-Johnson syndrome, or toxic epidermal necrolysis. • 17. […]

Test [2] has as its system serum uric acid. The following applies: previous results, gout patients; cited from earlier work.
[3] abbreviates: febuxostat 40 mg, mild renal function impairment, 12 weeks.
[4] abbreviates: febuxostat 40 mg, normal renal function, 12 weeks.
[5] abbreviates: febuxostat 40 mg, one patient in moderate renal function impairment group, 12 weeks.

`Cc1nc(-c2ccc(OCC(C)C)c(C#N)c2)sc1C(=O)O` [Febuxostat, febuxostat, reference compound]: in the test with serum uric acid [1] (setting [3]), the “patients adjusted to serum uric acid <5.0 mg/dL” value came to 33% and the “patients adjusted to serum uric acid <6.0 mg/dL” value was determined as 67%. Moreover, in the test on serum uric acid [1] (setting [4]), the “patients adjusted to serum uric acid <5.0 mg/dL” value worked out at 20% and the “patients adjusted to serum uric acid <6.0 mg/dL” value worked out at 60%. In the test on serum uric acid [1] (setting [5]), the “adjustment of serum uric acid to <5.0 mg/dL” value was “not adjusted to less than 5.0 mg/dL” and the “adjustment of serum uric acid to <6.0 mg/dL” value is on record as “not adjusted to less than 6.0 mg/dl”. Besides, in the test with serum uric acid [1] (12 weeks), the “patients with serum uric acid concentration <4 mg/dL” value is 0% (0/13 people), the “patients with serum uric acid concentration <5 mg/dL” value is recorded as 23% (3/13 people) and the “patients with serum uric acid concentration <6 mg/dL” value was 54% (7/13 people). Besides, in the test with serum uric acid [1] (12 weeks, listed as febuxostat), the “patients with serum uric acid concentration <4 mg/dL” value turned out to be 0%, the “patients with serum uric acid concentration <5 mg/dL” value is listed as 23% and the “patients with serum uric acid concentration <6 mg/dL” value was 54%. Further, in the test with serum uric acid [1] (febuxostat group 40 mg, FIG. 3), the “degree of reduction in serum uric acid” value is given as 41.4%.

Regarding `Oc1ncnc2[nH]ncc12` [allopurinol], the “patients in the receiving group with serum uric acid concentration of less than 6 mg/dL” value in the test on serum uric acid [2] is “about 40%”.

(Values after patent US20240415814A1, “PHARMACEUTICAL COMPOSITION COMPRISING 1-(3-CYANO-1-ISOPROPYL-INDOL-5-YL)PYRAZOLE-4-CARBOXYLIC ACID” (LG CHEM, LTD., priority 2021, published 2024).)
